# Where a SMILES comes first, the peptide text is derived from it.
# What was measured:
# [1] = system: CLP-induced septic mice; assay: Organ function, coagulation and lung histology in CLP mice; format: in vivo, mouse; details: 24 h post-CLP surgery
# Procedure: The cecal ligation and puncture (CLP) model was established in male C57BL/6 mice (9-10 weeks old). Briefly, a midline laparotomy was performed to exteriorize the cecum under general anesthesia. The cecum was ligated at the distal three-quarters using sutures. Subsequently, a single through-and-through puncture was made in the ligated segment using a 22-gaμge needle, followed by small volume of fecal content was gentle extrusion. The cecum was then repositioned within abdominal cavity, and the laparotomy incision was closed in layers. All animals were administered 1 mL of sterile saline for postoperative fluid resuscitation. Sham-operated controls underwent identical surgical procedures without cecal ligation or puncture. In this work, mice received administration via intravenous injection 1 hour after CLP surgery. The animal mortality was determined by the presence of confirmed death. […] Blood samples were collected 24 hours after CLP-modeling for hematological analysis (Mindray BC-60R Vet) and biochemical analysis (Mindray BS-240 Vet, China), endothelial injury analysis (Njjcbio, Nanjing) and coagulation analysis (Legene, Beijing). Subsequently, mice were sacrificed to collect the main organs for morphological and pathological analysis.
# [2] = biological target: T1, Cy5-labeled mouse C5a protein (Mus musculus, UniProt P06684); assay: Competitive binding assay by FCM (Cy5-C5a on mouse neutrophils); format: cell-based; details: high (1 μg/mL) or low (10 ng/mL) concentrations
# T1 construct: 10 ng of Cy5-labeled mouse C5a protein (MCE, Shanghai, China); purchased MCE; host or cells: mouse peripheral blood neutrophils (endogenous receptor)
# T1 sequence (P06684 679-755): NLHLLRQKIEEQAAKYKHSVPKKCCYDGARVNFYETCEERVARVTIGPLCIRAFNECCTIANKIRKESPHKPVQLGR
# Procedure: For the validation of peptide affinity for C5a. Peripheral blood neutrophils from the mice were isolated via density gradient centrifugation (Solarbio P9201, Beijing, China). A total of 10 ng of Cy5-labeled mouse C5a protein (MCE, Shanghai, China) was preincubated with linear peptides or cyclic peptides (10 or 100 ng) at room temperature for 0.5 h. Subsequently, 2×10^5 mouse neutrophils were incubated with Cy5-labeled mouse C5a or Cy5-labeled mouse C5a/peptide complexes at 4 °C for 0.5 h in the dark, followed by centrifugation, washing with PBS and flow cytometric analysis (Sony ID7000™, Japan).
# [3] = system: CLP model mice; assay: cfDNA and neutrophil elastase in plasma of CLP mice; format: in vivo, mouse; details: 100 μg/20 g, 24 h after CLP surgery, relative to Sham set as 0%
# Procedure: To determine the levels of cfDNA and elastase in plasma, blood samples were collected, and plasma was prepared 24 h after CLP surgery. cfDNA was extracted via the VAHTS Serum/Plasma Circulating DNA Kit (Vazyme, Nanjing) and quantified via qPCR. Elastase was quantified via an NE ELISA Kit (Cusabio, Wuhan).
# [4] = system: normal mice; assay: Systemic safety evaluation in normal mice; format: in vivo; details: 100 μg/20 g i.v., 24 h
# Procedure: The cytotoxic potential of cyclic-peptides was evaluated in HUVECs and RAW 264.7 cells. Cells were incubated with serially diluted Cp1 (1 pg-100 μg/mL) for 24 hours at 37°C in a 5% CO₂ humidified atmosphere, followed by cell viability assessment using CCK-8 kit (Dojindo, Japan). For systemic safety evaluation, whole blood samples were collected for hematological analysis, biochemistry analysis and inflammatory profiling analysis. Following euthanasia, major organs were harvested, fixed and processed for H&E staining.
# [5] = system: CLP-induced septic mice; assay: Inflammatory factors and chemokines in PLF, Luminex, CLP mice; format: in vivo, mouse
# Procedure: Twenty-four hours later, whole blood and PLF were collected under anesthesia. The plasma and PLF supernatants were further isolated via centrifugation (3000 × g, 10 min, 4 °C) and subjected to inflammatory factor and chemokine profiling via the Luminex® multiplex […] Biotechnologies, Shanghai, China). The percent inhibition was calculated relative to that of the sham group (set as 0%).
# [6] = system: PMNs; assay: C5a-triggered chemotaxis assay, PMNs (IncuCyte); format: cell-based, human; details: 10 ng to 1 μg per well, 24 h
# Procedure: The chemotaxis assay in this study was monitored and quantified by the IncuCyte ZOOM® Live-Cell Imaging System. The y-axis label “total area normalized to initial area in each group” in Fig. 3k, m represent the ratio of the total cell area at each time point to the initial area (0 h) within the same field of view. A higher ratio indicates […] cell migration activity.
# One hundred nanograms of human C5a protein (ACROBiosystems, Beijing, China) was preincubated with linear or cyclic peptides at the indicated concentrations (10 ng, 100 ng, or 1 μg) in 1640 complete culture medium for 30 min. PMNs isolated by flow cytometric sorting for chemotaxis assays were purchased from Oribiotech Co., Ltd. (Shanghai, China). A total of 1 × 10^4 cells were added to the upper chamber of 96-well cell chemotaxis plates (Sartorius, Germany) and allowed to migrate at 37 °C for 24 h. The chemotactic response of neutrophils toward C5a with or without C5a-blocking peptides was quantified and analyzed via an IncuCyte ZOOM® Live-Cell Imaging System (Sartorius, Germany). The chemotactic response of mouse neutrophils was assessed following the established protocol for PMNs.
# [7] = system: CLP model mice; assay: Routine blood test: neutrophils and monocytes in CLP model mice; format: in vivo, mouse; details: 100 μg/20 g i.v.
# Procedure: The cecal ligation and puncture (CLP) model was established in male C57BL/6 mice (9-10 weeks old). Briefly, a midline laparotomy was performed to exteriorize the cecum under general anesthesia. The cecum was ligated at the distal three-quarters using sutures. Subsequently, a single through-and-through puncture was made in the ligated segment using a 22-gaμge needle, followed by small volume of fecal content was gentle extrusion. The cecum was then repositioned within abdominal cavity, and the laparotomy incision was closed in layers. All animals were administered 1 mL of sterile saline for postoperative fluid resuscitation. Sham-operated controls underwent identical surgical procedures without cecal ligation or puncture. In this work, mice received administration via intravenous injection 1 hour after CLP surgery. The animal mortality was determined by the presence of confirmed death. […] Subsequently, mice were sacrificed to collect the main organs for morphological and pathological analysis.
# [8] = 100 μg/20 g, 24 h after CLP, relative to Sham set as 0%
smiles,measurement,setting,value
CSCC[C@@H]1NC(=O)[C@@H]2CCCN2C(=O)[C@H](CCSC)NC(=O)[C@H](CO)NC(=O)[C@H](Cc2c[nH]cn2)NC(=O)CNC(=O)[C@H](CO)NC(=O)[C@H](Cc2ccccc2)NC(=O)[C@H](CCCNC(=N)N)NC(=O)[C@H](CCC(=O)O)NC(=O)[C@H](Cc2ccccc2)NC(=O)[C@H](C(C)C)NC1=O [Cp1] (cyclo(HSMPMVFERFSG)),LDH and LAC levels,[1]; 100 μg/20 g,marked reduction
same,"coagulation function parameters (PT, APTT, TT, Fbg)",[1]; 100 μg/20 g,attenuated the sepsis-induced changes in the clotting and fibrinolytic systems
same,serum ALT and AST levels (liver function),[1]; 100 μg/20 g,effectively mitigated the increase
same,serum UREA and CREA levels (kidney injury),"[1]; 100 μg/20 g, vs untreated CLP mice",significantly lower
same,"lung injury, H&E pathological sections",[1],significantly ameliorated sepsis-induced pulmonary vascular leakage
same,blockade of Cy5-C5a binding to mouse neutrophils,[2],validated the blocking efficacy
same,decrease of plasma neutrophil elastase (NE),[3]; ELISA,100%
same,decrease of plasma cfDNA,[3]; qPCR,68%
same,"hepatorenal toxicity and tissue injury (blood biochemistry, histopathology)",[4],no hepatorenal toxicity or tissue injury
same,decrease of CCL2 in PLF,[5]; [8],96%
same,decrease of CCL3 in PLF,[5]; [8],87%
same,decrease of CCL5 in PLF,[5]; [8],89%
same,decrease of CCL7 in PLF,[5]; [8],69%
same,decrease of CCL12 in PLF,[5]; [8],90%
same,decrease of CXCL1 in PLF,[5]; [8],75%
same,decrease of CXCL5 in PLF,[5]; [8],94%
same,decrease of IL-1β in PLF,[5]; [8],62%
same,decrease of IL-6 in PLF,[5]; [8],73%
same,decrease of TNF-α in PLF,[5]; [8],77%
same,"expression of inflammatory factors and chemokines in PLF, high dose",[5]; 300 μg of Cp1,effectively suppressed
same,attenuation of IL-6 in PLF,"[5]; CLP-induced septic mice, first of four 'corresponding' values",3.7 fold
same,attenuation of CXCL1 in PLF,"[5]; CLP-induced septic mice, fourth of four 'corresponding' values",4.3 fold
same,attenuation of CCL2 in PLF,"[5]; CLP-induced septic mice, third of four 'corresponding' values",25 fold
same,suppression of C5a-driven recruitment of PMNs,[6],dose-dependently suppressed
same,increase of absolute monocyte count (delayed peak) vs sham group,[7]; 12 h,69%
same,reduction in absolute neutrophil count vs CLP group,[7]; 12 h,63%
same,reduction in absolute monocyte count vs the 4-h peak value in the CLP group,[7]; peak at 12 h,38%

# From publication PMC12586598, “A novel long-acting C5a-blocking cyclic peptide prevents sepsis-induced organ dysfunction via effective blockade of the inflammatory cascade” (Signal Transduction and Targeted Therapy, 2025)
